Data: patent publication US10376520B2, “Methods for the treatment of cardiovascular disorders” (Galapagos NV, priority 2015, dated 2019)

Test system: RA patients
Experiment: [HDL] determination, Study 1 (RA patients, add-on to MTX)
Format: in vivo, human
Protocol: Double-blind, placebo-controlled add on study in subjects with moderately to severely active RA who have an inadequate response to methotrexate (MTX) (oral or parenteral).
595 subjects randomized to one of 6 dose regimens of Compound 1 (dosed as a [Compound 1:HCl:3H2O]) (3 dose levels administered either once or twice daily) or placebo on top of each subject's stable dose of MTX.
Compound 1 (dosed as a [Compound 1:HCl:3H2O]) is dosed for twelve weeks once daily (q.d.) (50 mg, 100 mg or 200 mg) or twice daily (b.i.d.) (25 mg, 50 mg or 100 mg); or placebo.
At Week 12, the subjects on placebo who have not achieved 20% improvement in swollen joint count (SJC66) and tender joint count (TJC68) are re-randomized automatically to receive Compound 1 (dosed as a [Compound 1:HCl:3H2O]) either at 100 mg q.d. or 50 mg b.i.d. doses in a blinded fashion; subjects on 50 mg q.d. who have not achieved 20% improvement in SJC66 and TJC68 will be assigned to 100 mg q.d. and subjects on 25 mg b.i.d. that have not achieved a 20% improvement in SJC66 and TJC68 will be assigned to 50 mg b.i.d. Subjects who switch treatment at week 12 are handled as if they discontinued at week 12 for the purpose of statistical analysis, whereas subjects in the other groups will maintain their randomized treatment until Week 24.
This assay relies on a homogeneous enzymatic colorimetric test. In the presence of magnesium ions, dextran sulfate selectively forms water-soluble complexes with LDL, VLDL and chylomicrons which are resistant to PEG-modified enzymes.
The cholesterol concentration of [HDL]-cholesterol is determined enzymatically by cholesterol esterase and cholesterol oxidase coupled with PEG to the amino groups (approx. 40%).
In the presence of peroxidase, the hydrogen peroxide generated reacts with 4-amino-antipyrine and Sodium N-(2-hydroxy-3-sulfopropyl)-3,5-dimethoxyaniline (HSDA) to form a purple-blue dye. The color intensity of this dye is directly proportional to the cholesterol concentration and is measured photometrically.
Human serum and plasma samples [HDL] determination was done on a Roche/Hitachi Cobas c 701/702 system which automatically calculate the analyte concentration of each sample. Samples containing precipitates are centrifuged before performing the assay.

[1] = continued 50 mg q.d. (N = 63), week 4
[2] = continued 50 mg q.d. (N = 63), week 8
[3] = continued 50 mg q.d. (N = 63), week 12
[4] = continued 50 mg q.d. (N = 63), week 16
[5] = continued 50 mg q.d. (N = 63), week 20
[6] = continued 50 mg q.d. (N = 63), week 24
[7] = continued 100 mg b.i.d. (N = 84), week 1
[8] = continued 100 mg b.i.d. (N = 84), week 2
[9] = continued 100 mg b.i.d. (N = 84), week 4
[10] = continued 100 mg b.i.d. (N = 84), week 8
[11] = continued 100 mg b.i.d. (N = 84), week 12
[12] = continued 100 mg b.i.d. (N = 84), week 16
[13] = continued 100 mg b.i.d. (N = 84), week 20
[14] = continued 100 mg b.i.d. (N = 84), week 24
[15] = continued 100 mg q.d. (N = 85), week 1
[16] = continued 100 mg q.d. (N = 85), week 2
[17] = continued 100 mg q.d. (N = 85), week 4
[18] = continued 100 mg q.d. (N = 85), week 8
[19] = continued 100 mg q.d. (N = 85), week 12
[20] = continued 100 mg q.d. (N = 85), week 16
[21] = continued 100 mg q.d. (N = 85), week 20
[22] = continued 100 mg q.d. (N = 85), week 24
[23] = continued 200 mg q.d. (N = 86), week 1
[24] = continued 200 mg q.d. (N = 86), week 2

O=C(Nc1nc2cccc(-c3ccc(CN4CCS(=O)(=O)CC4)cc3)n2n1)C1CC1 [Compound 1, cyclopropanecarboxylic acid {5-[4-(1,1-dioxo-thiomorpholin-4-ylmethyl)-phenyl]-[1,2,4]triazolo[1,5-a]pyridin-2yl}-amide]
[HDL] Mean percentage CFB - 24 weeks results [1]: 4.87%
[HDL] Median CFB - 24 weeks results [1]: 0.05 mmol/L
[HDL] Mean CFB - 24 weeks results [2]: 0.06 mmol/L
[HDL] Mean percentage CFB - 24 weeks results [2]: 5.57%
[HDL] Median CFB - 24 weeks results [2]: 0.10 mmol/L
[HDL] Mean CFB - 24 weeks results [3]: 0.08 mmol/L
[HDL] Mean percentage CFB - 24 weeks results [3]: 7.86%
[HDL] Median CFB - 24 weeks results [3]: 0.06 mmol/L
[HDL] Mean CFB - 24 weeks results [4]: 0.08 mmol/L
[HDL] Mean percentage CFB - 24 weeks results [4]: 6.63%
[HDL] Median CFB - 24 weeks results [4]: 0.10 mmol/L
[HDL] Mean CFB - 24 weeks results [5]: 0.10 mmol/L
[HDL] Mean percentage CFB - 24 weeks results [5]: 8.81%
[HDL] Median CFB - 24 weeks results [5]: 0.10 mmol/L
[HDL] Mean CFB - 24 weeks results [6]: 0.17 mmol/L
[HDL] Mean percentage CFB - 24 weeks results [6]: 14.22%
[HDL] Median CFB - 24 weeks results [6]: 0.15 mmol/L
[HDL] Mean CFB - 24 weeks results [7]: 0.12 mmol/L
[HDL] Mean percentage CFB - 24 weeks results [7]: 9.40%
[HDL] Median CFB - 24 weeks results [7]: 0.10 mmol/L
[HDL] Mean CFB - 24 weeks results [8]: 0.20 mmol/L
[HDL] Mean percentage CFB - 24 weeks results [8]: 15.20%
[HDL] Median CFB - 24 weeks results [8]: 0.18 mmol/L
[HDL] Mean CFB - 24 weeks results [9]: 0.25 mmol/L
[HDL] Mean percentage CFB - 24 weeks results [9]: 19.54%
[HDL] Median CFB - 24 weeks results [9]: 0.25 mmol/L
[HDL] Mean CFB - 24 weeks results [10]: 0.26 mmol/L
[HDL] Mean percentage CFB - 24 weeks results [10]: 21.15%
[HDL] Median CFB - 24 weeks results [10]: 0.25 mmol/L
[HDL] Mean CFB - 24 weeks results [11]: 0.30 mmol/L
[HDL] Mean percentage CFB - 24 weeks results [11]: 23.14%
[HDL] Median CFB - 24 weeks results [11]: 0.25 mmol/L
[HDL] Mean CFB - 24 weeks results [12]: 0.27 mmol/L
[HDL] Mean percentage CFB - 24 weeks results [12]: 21.09%
[HDL] Median CFB - 24 weeks results [12]: 0.28 mmol/L
[HDL] Mean CFB - 24 weeks results [13]: 0.28 mmol/L
[HDL] Mean percentage CFB - 24 weeks results [13]: 21.88%
[HDL] Median CFB - 24 weeks results [13]: 0.29 mmol/L
[HDL] Mean CFB - 24 weeks results [14]: 0.29 mmol/L
[HDL] Mean percentage CFB - 24 weeks results [14]: 22.68%
[HDL] Median CFB - 24 weeks results [14]: 0.30 mmol/L
[HDL] Mean CFB - 24 weeks results [15]: 0.05 mmol/L
[HDL] Mean percentage CFB - 24 weeks results [15]: 5.43%
[HDL] Median CFB - 24 weeks results [15]: 0.06 mmol/L
[HDL] Mean CFB - 24 weeks results [16]: 0.07 mmol/L
[HDL] Mean percentage CFB - 24 weeks results [16]: 7.02%
[HDL] Median CFB - 24 weeks results [16]: 0.07 mmol/L
[HDL] Mean CFB - 24 weeks results [17]: 0.11 mmol/L
[HDL] Mean percentage CFB - 24 weeks results [17]: 9.40%
[HDL] Median CFB - 24 weeks results [17]: 0.13 mmol/L
[HDL] Mean CFB - 24 weeks results [18]: 0.09 mmol/L
[HDL] Mean percentage CFB - 24 weeks results [18]: 8.18%
[HDL] Median CFB - 24 weeks results [18]: 0.11 mmol/L
[HDL] Mean CFB - 24 weeks results [19]: 0.10 mmol/L
[HDL] Mean percentage CFB - 24 weeks results [19]: 8.49%
[HDL] Median CFB - 24 weeks results [19]: 0.10 mmol/L
[HDL] Mean CFB - 24 weeks results [20]: 0.09 mmol/L
[HDL] Mean percentage CFB - 24 weeks results [20]: 7.94%
[HDL] Median CFB - 24 weeks results [20]: 0.10 mmol/L
[HDL] Mean CFB - 24 weeks results [21]: 0.15 mmol/L
[HDL] Mean percentage CFB - 24 weeks results [21]: 12.24%
[HDL] Median CFB - 24 weeks results [21]: 0.14 mmol/L
[HDL] Mean CFB - 24 weeks results [22]: 0.15 mmol/L
[HDL] Mean percentage CFB - 24 weeks results [22]: 12.17%
[HDL] Median CFB - 24 weeks results [22]: 0.15 mmol/L
[HDL] Mean CFB - 24 weeks results [23]: 0.11 mmol/L
[HDL] Mean percentage CFB - 24 weeks results [23]: 9.42%
[HDL] Median CFB - 24 weeks results [23]: 0.13 mmol/L
[HDL] Mean CFB - 24 weeks results [24]: 0.20 mmol/L
[HDL] Mean percentage CFB - 24 weeks results [24]: 16.66%
[HDL] Median CFB - 24 weeks results [24]: 0.20 mmol/L
[HDL] Mean CFB - 24 weeks results (continued 200 mg q.d. (N = 86), week 4): 0.24 mmol/L
